We go through 2 compounds from publication PMC11173677, “Identification and Evaluation of Olive Phenolics in the Context of Amine Oxidase Enzyme Inhibition and Depression: In Silico Modelling and In Vitro Validation” (Molecules, 2024).

Data set [1] addresses T1, LSD1 (Homo sapiens, UniProt O60341).
T1 construct: Reaction Biology Corporation (performed the assay)
The conditions noted are these: in vitro assays; cited from earlier work.

Data set [2] has as its target T1, LSD1. The data set is described as follows: LSD1 fluorescence coupling enzyme assay (Reaction Biology Corporation). Format: biochemical. The conditions noted are these: Reaction Biology Corp., 30 min pre-incubation, 10 μM histone H3(1-21)K4me2 peptide substrate; read-out: IC50, LSD1 demethylase activity. As to the method:
The inhibitory activity of HCl 489479, OLC, and OLP was measured using a fluorescence coupling enzyme assay (performed by Reaction Biology Corporation). […] All compounds were pre-incubated for 30 min with the enzyme before the addition of 10 μM histone H3(1-21)K4me2 peptide substrate to start the reaction. Fluorescence was measured using an EnVision Multimode Plate Reader at Ex/Em = 535/590.

Data set [3] concerns T2, MAO-A.
T2 construct: endogenous in cells; host or cells: BJ human foreskin fibroblasts stimulated with DEX or HC
Put plainly: MAO-A activity assay in corticosteroid-stimulated BJ cells. Format: cell-based, human. The conditions noted are these: then 50 μM compound 24 h. On the procedure:
(§1) The BJ cells were subsequently incubated with 10 μM HC or 100 μM DEX to stimulate MAO expression. […] The untreated BJ cells received normal growth medium. The cells were collected, homogenised, and analysed through Western blotting where the expression of MAO-A/B was determined through immunodetection of protein subtypes.
(§2) Activity assays were commercially sourced from BioVision (Abcam, BioVision ab241031, Waltham, MA, USA) and were performed according to manufacturer’s instructions. The treatment groups were plated in duplicate on a black, flat 96-well microplate. The cells were homogenised in assay buffer using a microtube mixer at 4 °C and centrifuged at 10,000× g for 10 min. A Bradford assay was performed to determine the total protein concentration within each cell pellet (200 μg/well for BJ cells, 40 μg/well for hESC-derived neurons). Approximately 40 μL of supernatant was loaded into wells along with 10 μL of either […], or assay buffer for total MAO activity. A H2O2 standard was pipetted as supplied and 50 μL of reaction mix was pipetted into all wells. Using a CLARIOstar Plus Microplate Reader, (BMG Labtech, Ortenberg, Germany), fluorescence was measured kinetically at 25 °C for 60 min with Ex/Em = 535/587 nm.

Data set [4] concerns total MAO. The data set is described as follows: Total MAO activity assay in hESC-derived neurons stimulated with ATRA. Format: cell-based, human. The conditions noted are these: 1 μM ATRA 24 h, then TCP 5 μM, OLC 50 μM or OLP 50 μM for 24 h. As to the method:
(§3) An in vitro model of MDD was designed for stem cell-derived neuronal cells through incubation of 1 μM all-trans retinoic acid (Sigma-Aldrich PHR1187, St. Louis, MO, USA). All cell treatments were conducted in duplicate and replicated using independently differentiating neuronal plates.
as §2

Data set [5] relates to total MAO. The data set is described as follows: Total MAO activity assay in corticosteroid-stimulated BJ cells. Format: cell-based, human. The conditions noted are these: then 50 μM compound 24 h. On the procedure: as §1, §2
In another data set the test system is BJ cells. Put plainly: Viability of BJ cells (CellTiter-Blue Cell Viability Assay). Format: cell-based, human. Conditions: for IC50: Homo sapiens, BJ. On the procedure: The BJ cells were seeded at densities of 10,000 cells in black flat bottom 96-well plates (Nalge Nunc, Penfield, Rochester, NY, USA) and treated with a dose–response of OLC (0–500 μM) and OLP (0–500 μM) for 24 h, 48 h, 72 h, and 7 days at 37 °C, 5% (v/v) CO2. Cell viability was measured using the Cell-Titer Blue® Assay kit (Promega, Madison, WI, USA) according to the manufacturer’s instructions. Cell-Titer Blue reagent was added to each well and incubated for 4 h at 37 °C with 5% (v/v) CO2 before the fluorescence intensity was read using the CLARIOstar Microplate Reader (BMG Labtech, Ortenberg, Germany).
A Nikon Eclipse Ts2 light microscope (Nikon Ti TS2-S-SM, Tokyo, Japan) was used to image untreated and treated BJ cells (OLP or OLC: 0–100 μM) at 4× objective magnification at 20, 44, and 120 h (Figures S1 and S2).

For another data set, the target named is T3, purified MAO-A (Homo sapiens, UniProt P21397).
T3 construct: purchased Sigma-Aldrich MAK295
T3 sequence (P21397 1-527): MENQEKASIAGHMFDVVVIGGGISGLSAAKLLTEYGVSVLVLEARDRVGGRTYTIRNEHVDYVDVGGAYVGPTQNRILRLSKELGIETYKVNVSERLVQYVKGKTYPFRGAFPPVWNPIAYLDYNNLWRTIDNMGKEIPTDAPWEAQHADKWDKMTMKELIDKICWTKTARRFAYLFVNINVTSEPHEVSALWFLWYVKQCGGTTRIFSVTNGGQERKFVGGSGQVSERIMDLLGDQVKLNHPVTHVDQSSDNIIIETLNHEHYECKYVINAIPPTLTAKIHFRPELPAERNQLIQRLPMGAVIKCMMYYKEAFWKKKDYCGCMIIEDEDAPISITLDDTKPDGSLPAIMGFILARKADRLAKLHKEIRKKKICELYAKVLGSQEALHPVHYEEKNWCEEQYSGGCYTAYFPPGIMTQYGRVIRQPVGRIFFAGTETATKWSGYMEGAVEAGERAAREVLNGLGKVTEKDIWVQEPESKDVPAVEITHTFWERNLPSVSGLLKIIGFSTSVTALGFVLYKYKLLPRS
Put plainly: MAO-A direct screening assay (inhibitor screening kit). The format is biochemical. Conditions: purified enzyme; read-out: IC50, inhibition of MAO-A. As to the method:
The assays were conducted for MAO-A and MAO-B according to the manufacturer’s instructions.

The subject of data set [6] is T4, MAO-B.
T4 construct: endogenous in cells; host or cells: BJ human foreskin fibroblasts stimulated with DEX or HC
The data set is described as follows: MAO-B activity assay in hESC-derived neurons stimulated with ATRA. The format is cell-based, human. Conditions: 1 μM ATRA 24 h, then TCP 5 μM, OLC 50 μM or OLP 50 μM for 24 h. On the procedure:
as §3, §2

For another data set, the system named is human skin fibroblasts. On the set-up: method as in PMID 37432217. Conditions: in comparison to untreated controls, at certain doses; cited from earlier work.
A further data set concerns MAO-A/B expression. Put plainly: MAO-A/B protein expression in HC- or DEX-stimulated BJ cells (Western blotting). Conditions: 10 μM HC 5 days or 100 μM DEX 7 days, then 50 μM compound; Western blot. The format is cell-based, human. On the procedure: as §1
Data set [7] concerns T4, MAO-B. Put plainly: MAO-B activity assay in corticosteroid-stimulated BJ cells. The conditions noted are these: then 50 μM compound 24 h. The format is cell-based, human. On the procedure:
as §1, §2

Data set [8] has as its system T2, MAO-A. The data set is described as follows: MAO-A activity assay in hESC-derived neurons stimulated with ATRA. Format: cell-based, human. The conditions noted are these: 1 μM ATRA 24 h, then TCP 5 μM, OLC 50 μM or OLP 50 μM for 24 h. As to the method:
as §3, §2

Where two headings read alike, the source gives them in different places.

Consider `CC=C(C=O)C(CC=O)CC(=O)OCCc1ccc(O)c(O)c1` (stereo in doubt) [oleacein], for which the IC50 on LSD1 [1] is around 2.5 µM.

As for `C/C=C(/C=O)[C@@H](CC=O)CC(=O)OCCc1ccc(O)cc1` [OLC, oleocanthal], the IC50 amounted to 12 µM on LSD1 [2], 123 µM in the data set on BJ cells (24 h), 111 µM with BJ cells (48 h) and 1.9 µM at purified MAO-A. Besides, the “MAO-A activity in BJ cells” value with MAO-A [3] (10 μM HC 5 days) and in the data set on MAO-A [3] (100 μM DEX 7 days) was “downregulate” in each case. In the data set with total MAO [4], the “total MAO activity in hESC-derived neurons” value is “significantly reduced”. Besides, the “total MAO activity in BJ cells” value in the data set with total MAO [5] (10 μM HC 5 days) and with total MAO [5] (100 μM DEX 7 days) was “downregulate” throughout. The “relative viability of BJ cells at the highest concentration” value with BJ cells (500 μM) is “reduction”. Also, the “proliferation potential of BJ cells” value in the data set with BJ cells (25, 50, 75 and 100 μM, similar to untreated cells) is reported as “maintained their proliferation potential”. Also, in the data set with BJ cells (concentrations used in further experiments (50 μM)), the “toxicity to BJ cells at the concentrations used in further experiments” value is recorded as “non-toxic”. In addition, the “viability of BJ cells at lower concentrations” value in the data set on BJ cells (up to 200 μM) is “largely maintained”. Moreover, in the data set on MAO-B [6], the “MAO-B activity in hESC-derived neurons” value was “significantly reduced”. For the same compound, the “growth capacity of human skin fibroblasts” value in the data set with human skin fibroblasts is listed as “significantly increased”. The “MAO enzyme expression within BJ cells” value in the data set on MAO-A/B expression is “Potent inhibition”. For the same compound, the “MAO-B activity in BJ cells” value with MAO-B [7] (10 μM HC 5 days) and in the data set on MAO-B [7] (100 μM DEX 7 days) was “downregulate” in each case. Further, the “MAO-A activity in hESC-derived neurons” value in the data set on MAO-A [8] is recorded as “significantly reduced”.
